Laboratory results taken from US8324225B2, “Pyrrolopyrimidine compounds and their uses” (Novartis AG, priority 2006, dated 2012).
Where two headings read alike, the source gives them in different places.

Key:
Assay type in all cases: biochemical
[1] = biological target: CDK4/Cyclin-D1 kinase complex (Homo sapiens, UniProt P11802); experiment: CDK4 ELISA based assay, Rb phosphorylation at Serine780; conditions: Table C
Text: The compounds that inhibit the CDK4 kinase activity would inhibit the signal output of the assay.

[2] = biological target: CDK2/Cyclin-A kinase complex (Homo sapiens, UniProt P24941); experiment: CDK2 IMAP fluorescence polarization assay
Text: In order to test the CDK2 activity of the compounds of the invention, the CDK2 assay is a fluorescence polarization assay, where the enzyme is a purified active CDK2/Cyclin-A kinase complex and the substrate is a synthesized peptide derived from Histone H1. This assay utilizes the IMAP technology from Molecular Devices. The active CDK2/Cyclin-A complex phosphorylates the peptide substrate, which is conjugated with the TAMRA tag. The phosphorylated site is then recognized by a metal containing molecule that interacts with the TAMRA tag to induce a high fluorescence polarization. The compounds that inhibit the CDK2 kinase activity would inhibit the fluorescence output of the assay.

CDK4 = CDK4 (Homo sapiens, UniProt P11802); experiment: CDK4 HTRF; conditions: Table E; read-out: CDK4 HTRF/IC50 [umol l − 1]
Sequence of CDK4 (P11802 whole entry): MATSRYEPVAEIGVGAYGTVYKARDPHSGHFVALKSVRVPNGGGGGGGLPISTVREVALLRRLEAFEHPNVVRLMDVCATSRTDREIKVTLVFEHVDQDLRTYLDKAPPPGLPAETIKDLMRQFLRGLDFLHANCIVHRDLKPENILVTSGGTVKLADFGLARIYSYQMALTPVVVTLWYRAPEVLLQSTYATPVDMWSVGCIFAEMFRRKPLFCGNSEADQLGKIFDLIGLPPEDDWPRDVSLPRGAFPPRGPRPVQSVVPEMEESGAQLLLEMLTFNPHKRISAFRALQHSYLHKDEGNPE
Sequence of CDK4 (P24385 whole entry partner): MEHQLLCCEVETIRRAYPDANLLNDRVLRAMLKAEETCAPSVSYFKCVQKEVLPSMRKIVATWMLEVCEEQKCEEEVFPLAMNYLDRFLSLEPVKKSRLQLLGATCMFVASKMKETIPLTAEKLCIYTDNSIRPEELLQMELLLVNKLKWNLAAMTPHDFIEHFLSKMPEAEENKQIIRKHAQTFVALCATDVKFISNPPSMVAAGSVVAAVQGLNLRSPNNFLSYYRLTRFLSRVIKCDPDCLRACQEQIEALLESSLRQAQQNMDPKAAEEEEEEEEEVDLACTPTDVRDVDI

hCDK1/B = hCDK1/B (Homo sapiens, UniProt P06493); experiment: hCDK1/B; conditions: Table E; read-out: hCDK1/B/IC50 [umol l − 1]
Sequence of hCDK1/B (P06493 whole entry): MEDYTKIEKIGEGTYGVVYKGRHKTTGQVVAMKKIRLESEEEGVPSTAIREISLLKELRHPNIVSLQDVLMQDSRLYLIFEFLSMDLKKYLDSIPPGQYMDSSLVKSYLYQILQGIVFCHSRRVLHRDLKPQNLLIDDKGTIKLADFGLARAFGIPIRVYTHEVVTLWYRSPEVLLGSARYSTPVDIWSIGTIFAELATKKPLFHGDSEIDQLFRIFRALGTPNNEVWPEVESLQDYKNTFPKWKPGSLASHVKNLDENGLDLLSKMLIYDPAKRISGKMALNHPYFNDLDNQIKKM
Sequence of hCDK1/B (P14635 whole entry partner): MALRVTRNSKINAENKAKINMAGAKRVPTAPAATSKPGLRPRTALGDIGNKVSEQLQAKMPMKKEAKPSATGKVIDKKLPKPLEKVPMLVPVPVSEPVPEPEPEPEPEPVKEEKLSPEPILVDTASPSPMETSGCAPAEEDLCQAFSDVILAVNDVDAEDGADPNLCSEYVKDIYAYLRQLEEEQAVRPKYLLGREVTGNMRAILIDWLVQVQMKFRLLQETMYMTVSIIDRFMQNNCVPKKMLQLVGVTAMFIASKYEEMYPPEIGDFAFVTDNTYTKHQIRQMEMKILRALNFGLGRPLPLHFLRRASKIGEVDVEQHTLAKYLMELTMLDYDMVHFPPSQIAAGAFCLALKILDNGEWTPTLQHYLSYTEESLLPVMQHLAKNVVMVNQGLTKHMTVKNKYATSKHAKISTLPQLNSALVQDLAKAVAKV

Sequence of CDK4/Cyclin-D1 kinase complex (P11802 whole entry): as the sequence (P11802 whole entry) above
Sequence of CDK4/Cyclin-D1 kinase complex (P24385 whole entry partner): as the sequence (P24385 whole entry partner) above

`CC(=O)N1CCN(c2ccc(Nc3ncc4c(C)cn(C5CCCC5)c4n3)cc2)CC1` gave an IC50 [1] of less than 10 µM and an IC50 ([2]; Table C, read-out: CDK2 IC50) of less than 10 µM.
Work on `Cc1cn(C2CCCC2)c2nc(Nc3ccc(N4CCNCC4)cc3)ncc12` yielded an IC50 ([2]; Table C, read-out: CDK2 IC50) of less than 10 µM.
Work on `Cc1cn(C2CCCC2)c2nc(Nc3ccc(N4CCNCC4)cn3)ncc12` yielded an IC50 [1] of less than 10 µM and an IC50 ([2]; Table C, read-out: CDK2 IC50) greater than 10 µM.
`Cc1cn(C2CCCC2)c2nc(Nc3ccc(N4CCN(C)CC4)cc3)ncc12` was tested, and the IC50 [1] was less than 10 µM and the IC50 ([2]; Table C, read-out: CDK2 IC50) was greater than 10 µM.
`CC(C)(C)OC(=O)N1CCN(c2ccc(Nc3ncc4ccn(C5CCCC5)c4n3)nc2)CC1` was tested, and the IC50 [1] was greater than 10 µM.
`c1cc(Nc2ncc3ccn(C4CCCC4)c3n2)ncc1N1CCNCC1` gave an IC50 [1] greater than 10 µM.
Work on `CC(=O)N1CCN(c2ccc(Nc3ncc4ccn(C5CCCC5)c4n3)nc2)CC1` yielded an IC50 [1] greater than 10 µM.
`CN1CCN(c2ccc(Nc3ncc4ccn(C5CCCC5)c4n3)cc2)CC1` gave an IC50 [1] of less than 10 µM.
`CC(=O)N1CCN(c2ccc(Nc3ncc4ccn(C5CCCC5)c4n3)cc2)CC1` gave an IC50 [1] greater than 10 µM.
`Cc1cn(C2CC2)c2nc(Nc3ccc(N4CCNCC4)cc3)ncc12` showed an IC50 [1] of less than 10 µM.
`c1cc(N2CCNCC2)ccc1Nc1ncc2ccn(C3CCCC3)c2n1` showed an IC50 [1] of less than 10 µM.
`Cc1cn(C2CCCCC2)c2nc(Nc3ccc(N4CCNCC4)cn3)ncc12` gave an IC50 [1] of less than 10 µM.
`Cc1cn(C2CC2)c2nc(Nc3ccc(N4CCNCC4)cn3)ncc12` showed an IC50 [1] of less than 10 µM.
Molecule `CCC(C(=O)OC)n1ccc2cnc(Nc3ccc(N4CCN(C(C)=O)CC4)cc3)nc21` (centres unmarked) [Example 219] has an IC50 (CDK4) of less than 10 µM.
Molecule `CCC(C(=O)OC)n1ccc2cnc(Nc3ccc(N4CCNCC4)cc3)nc21` (centres unmarked) [Example 221] has an IC50 (CDK4) of less than 10 µM.
`CCC(C)n1ccc2cnc(Nc3ccc(N4CCN(C(C)=O)CC4)cc3)nc21` (centres unmarked) [Example 222] was tested, and the IC50 (CDK4) was less than 10 µM.
Work on `CCOC(=O)C(C(C)C)n1ccc2cnc(Nc3ccc(N4CCN(C(C)=O)CC4)cc3)nc21` (centres unmarked) [Example 223] yielded an IC50 (CDK4) of less than 10 µM.
`CC(=O)N1CCN(c2ccc(Nc3ncc4ccn(C5CCCCC5=O)c4n3)cc2)CC1` (centres unmarked) [Example 226] was tested, and the IC50 (CDK4) was less than 10 µM.
With `CCC(C(N)=O)n1ccc2cnc(Nc3ccc(N4CCN(C(C)=O)CC4)cc3)nc21` (centres unmarked) [Example 227] the IC50 (CDK4) was less than 10 µM.
For `CC(=O)N1CCN(c2ccc(Nc3ncc4ccn(C5CCOCC5)c4n3)cc2)CC1` [Example 228], the IC50 (CDK4) was less than 10 µM.
Molecule `CC(=O)N1CCN(c2ccc(Nc3ncc4ccn(C(C)CN(C)C)c4n3)cc2)CC1` (centres unmarked) [Example 229] has an IC50 (CDK4) of less than 10 µM.
For `CCC(C(N)=O)n1ccc2cnc(Nc3ccc(N4CCNCC4)cc3)nc21` (centres unmarked) [Example 234], the IC50 (CDK4) was less than 10 µM.
For `c1cc(N2CCNCC2)ccc1Nc1ncc2ccn(C3CCOCC3)c2n1` [Example 235], the IC50 (CDK4) was less than 10 µM.
`CC(=O)N1CCN(c2ccc(Nc3ncc4ccn(C5CCC(C)CC5)c4n3)cc2)CC1` (centres unmarked) [Example 236] gave an IC50 (CDK4) of less than 10 µM.
Work on `CCC(=O)N1CCN(c2ccc(Nc3ncc4ccn(C(CC)CC)c4n3)cc2)CC1` [Example 237] yielded an IC50 (CDK4) of less than 10 µM.
Molecule `CC(=O)N1CCN(c2ccc(Nc3ncc4ccn(C5CCCC(C)C5)c4n3)cc2)CC1` (centres unmarked) [Example 241] has an IC50 (CDK4) of less than 10 µM.
For `CN(C)CC1CCC(n2ccc3cnc(Nc4ccc(N5CCNCC5)cc4)nc32)C1` (centres unmarked) [Example 249], the IC50 (CDK4) was less than 10 µM.
With `CN1CCN(c2ccc(Nc3ncc4ccn(C5CCCC5)c4n3)nc2)CC1` [Example 255] the IC50 (CDK4) was less than 10 µM.
`Cc1cn(C2CCCC2)c2nc(Nc3ccc(N4CCCCC4)cc3)ncc12` [Example 278] showed an IC50 (CDK4) of less than 10 µM.
Work on `Cc1cn(C2CCCC2)c2nc(Nc3ccc4[nH]ncc4c3)ncc12` [Example 281] yielded an IC50 (CDK4) of less than 10 µM.
With `Cc1cn(C2CCCC2)c2nc(Nc3ccc4[nH]ccc4c3)ncc12` [Example 282] the IC50 ([2]; Table E, read-out: CDK2cyA IMAP/IC50 [umol l − 1]) was greater than 15 µM, the IC50 (CDK4) was greater than 10 µM and the IC50 (hCDK1/B) was greater than 15 µM.
`Cc1cn(C2CCCC2)c2nc(Nc3ccc(N4CCNCC4)nc3)ncc12` [Example 283] showed an IC50 (CDK4) of less than 10 µM.
With `Cc1cn(C2CCCC2)c2nc(Nc3ccc(N4CCNCC4)c(F)c3)ncc12` [Example 285] the IC50 (CDK4) was less than 10 µM.
`Cc1cn(C2CCCC2)c2nc(Nc3ccc(N4CCN(S(C)(=O)=O)CC4)cc3)ncc12` [Example 286] gave an IC50 (CDK4) of less than 10 µM.
For `Cc1cn(C2CCCC2)c2nc(Nc3ccc(S(N)(=O)=O)cc3)ncc12` [Example 288], the IC50 (CDK4) was less than 10 µM.
For `Cc1cn(C2CCCC2)c2nc(Nc3ccc(C(=O)N4CCOCC4)cc3)ncc12` [Example 292], the IC50 (CDK4) was less than 10 µM.
Molecule `Cc1cn(C2CCCC2)c2nc(Nc3ccncc3)ncc12` [Example 298] has an IC50 (CDK4) of less than 10 µM.
With `Cc1cn(C2CCCC2)c2nc(Nc3cccnc3)ncc12` [Example 300] the IC50 (CDK4) was less than 10 µM.
Molecule `Cc1cn(C2CCCC2)c2nc(Nc3ccc(N4CCOCC4)cn3)ncc12` [Example 302] has an IC50 (CDK4) of less than 10 µM.
`Cc1cn(C2CCCC2)c2nc(Nc3ccc(N(C)C)cc3)ncc12` [Example 311] was tested, and the IC50 (CDK4) was less than 10 µM.
With `Cc1cn(C2CCCC2)c2nc(Nc3ccc(-n4ccnc4)cc3)ncc12` [Example 312] the IC50 (CDK4) was less than 10 µM.
`Cc1cn(-c2ccccn2)c2nc(Nc3ccc(N4CCNCC4)cn3)ncc12` [Example 320, (5-Methyl-7-pyridin-2-yl-7H-pyrrolo[2,3-d]pyrimidin-2-yl)-(5-piperazin-1-yl-pyridin-2-yl)-amine] gave an IC50 (CDK4) of less than 10 µM.
For `Cc1cn(-c2nccs2)c2nc(Nc3ccc(N4CCNCC4)cn3)ncc12` [Example 321], the IC50 (CDK4) was less than 10 µM.
For `Cc1cn(-c2cccnc2)c2nc(Nc3ccc(N4CCNCC4)cc3)ncc12` [Example 322], the IC50 (CDK4) was less than 10 µM.
For `CCCCNC(=O)c1cc2cnc(Nc3ccc(N4CCNCC4)cc3)nc2n1C(CC)CC` [Example 336], the IC50 (CDK4) was less than 10 µM.
Work on `CCC(CC)n1c(C(=O)N2CCCC2)cc2cnc(Nc3ccc(N4CCNCC4)cc3)nc21` [Example 337] yielded an IC50 (CDK4) of less than 10 µM.
Molecule `CCC(CC)n1c(C(=O)N2CCOCC2)cc2cnc(Nc3ccc(N4CCNCC4)cc3)nc21` [Example 343] has an IC50 (CDK4) of less than 10 µM.
`CCC(CC)n1c(C(=O)NC2CCCC2)cc2cnc(Nc3ccc(N4CCNCC4)cc3)nc21` [Example 344] was tested, and the IC50 (CDK4) was less than 10 µM.
`CCC(CC)n1c(C(=O)Nc2ccc(C(C)(C)C)cc2)cc2cnc(Nc3ccc(N4CCNCC4)cc3)nc21` [Example 349] showed an IC50 (CDK4) of less than 10 µM.
In the case of `CCC(CC)n1c(C(=O)Nc2ccc(CN3CCN(C)CC3)cc2)cc2cnc(Nc3ccc(N4CCNCC4)cc3)nc21` [Example 354], the IC50 (CDK4) is reported as less than 10 µM.
Molecule `CCC(CC)n1c(CNC(C)C)cc2cnc(Nc3ccc(N4CCN(C(C)=O)CC4)cc3)nc21` [Example 366] has an IC50 (CDK4) of less than 10 µM.
`CCC(CC)n1c(CNC(C)C)cc2cnc(Nc3ccc(N4CCNCC4)cc3)nc21` [Example 367] was tested, and the IC50 (CDK4) was less than 10 µM.
`CCC(CC)n1c(CNc2cccnc2)cc2cnc(Nc3ccc(N4CCN(C(C)=O)CC4)cc3)nc21` [Example 369] gave an IC50 (CDK4) of less than 10 µM.
In the case of `CCC(CC)n1c(CNC2CCCC2)cc2cnc(Nc3ccc(N4CCN(C(C)=O)CC4)cc3)nc21` [Example 370], the IC50 (CDK4) is reported as less than 10 µM.
For `CCC(CC)n1c(CNc2ccon2)cc2cnc(Nc3ccc(N4CCN(C(C)=O)CC4)cc3)nc21` [Example 371], the IC50 (CDK4) was less than 10 µM.
`CCC(CC)n1c(CNc2cc(C)[nH]n2)cc2cnc(Nc3ccc(N4CCN(C(C)=O)CC4)cc3)nc21` [Example 372] showed an IC50 (CDK4) of less than 10 µM.
Molecule `CCC(CC)n1c(C(=O)OC)cc2cnc(Nc3ccc(N4CCN(C(C)=O)CC4)cc3)nc21` [Example 373, 2-[4-(4-Acetyl-piperazin-1-yl)-phenylamino]-7-(1-ethyl-propyl)-7H-pyrrolo[2,3-d]pyrimidine-6-carboxylic acid methyl ester] has an IC50 (CDK4) of less than 10 µM.
Work on `CCC(CC)n1c(COC)cc2cnc(Nc3ccc(N4CCN(C(C)=O)CC4)cc3)nc21` [Example 379] yielded an IC50 (CDK4) of less than 10 µM.
`CCC(CC)n1c(COC)cc2cnc(Nc3ccc(C(=O)NC4CCCC4)cc3)nc21` [Example 380] showed an IC50 (CDK4) of less than 10 µM.
In the case of `CC(=O)c1c(C)c2cnc(Nc3ccc(N4CCNCC4)cn3)nc2n1C1CCOCC1` [Example 388], the IC50 (CDK4) is reported as less than 10 µM.
With `Cc1c(C(=O)N(C)C)n(C2CCCC2)c2nc(Nc3ccc(N4CCNCC4)cn3)ncc12` [Example 392] the IC50 (CDK4) was less than 10 µM.
Work on `Cc1cc(-c2c(C)c3cnc(Nc4ccc(N5CCNCC5)cn4)nc3n2C2CCCC2)on1` [Example 405] yielded an IC50 (CDK4) of less than 10 µM.
`Cc1cn(-c2ccccc2)c2nc(Nc3ccc(N4CCNCC4)cc3)ncc12` [Example 437] showed an IC50 (CDK4) of less than 10 µM.
`CCc1cn(C2CCCC2)c2nc(Nc3ccc(N4CCNCC4)cc3)ncc12` [Example 438] was tested, and the IC50 (CDK4) was less than 10 µM.
`CC(C)c1cn(C2CCCC2)c2nc(Nc3ccc(N4CCNCC4)cn3)ncc12` [Example 440] gave an IC50 (CDK4) of less than 10 µM.
Molecule `CCC(CC)n1c(CNCc2ccco2)cc2cnc(Nc3ccc(N4CCN(C(C)=O)CC4)cc3)nc21` [Example 449] has an IC50 (CDK4) of less than 10 µM.
`Cc1cn(C2CCCC2)c2nc(Nc3ccc(CN4CCN(C(=O)OC(C)(C)C)CC4)cc3)ncc12` [Example 462] showed an IC50 (CDK4) of less than 10 µM.
Molecule `Cc1cn(C2CCCC2)c2nc(Nc3ccc(CO)cc3)ncc12` [Example 466] has an IC50 (CDK4) of less than 10 µM.
`CN(C)C(=O)c1cc2cnc(NCc3ccc(N4CCNCC4)cc3)nc2n1C1CCCC1` [Example 467] showed an IC50 (CDK4) of less than 10 µM.
